Each structure is given as a SMILES string. Active and inactive are the calls of the source.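 Rule for the calls: active = IC50 at or below 10 micromolar; inactive = IC50 above 10 micromolar.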 Bounds are passed on as bounds.

The target in this assay is 5-hydroxytryptamine receptor 1E (Homo sapiens) (UniProt P28566). As to the kind of experiment: 5-HT1E receptor antagonist potency, dose response, cell-based (AID 749). The settings on record: CHO 5-HT1E Ga15 NFAT-BLA reporter, FRET.
Sequence of 5-hydroxytryptamine receptor 1E (Homo sapiens) (P28566 whole entry, looked up): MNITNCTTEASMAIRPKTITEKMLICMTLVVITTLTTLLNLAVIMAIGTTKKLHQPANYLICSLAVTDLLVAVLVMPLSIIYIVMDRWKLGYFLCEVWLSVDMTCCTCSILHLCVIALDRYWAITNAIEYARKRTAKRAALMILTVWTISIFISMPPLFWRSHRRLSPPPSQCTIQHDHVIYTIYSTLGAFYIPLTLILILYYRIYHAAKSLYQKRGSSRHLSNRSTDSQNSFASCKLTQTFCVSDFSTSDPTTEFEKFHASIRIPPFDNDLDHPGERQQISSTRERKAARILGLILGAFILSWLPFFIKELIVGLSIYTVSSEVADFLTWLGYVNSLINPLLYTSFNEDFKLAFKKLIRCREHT
As to `CCC(NC(=O)Nc1nnc(C(F)(F)F)s1)(C(F)(F)F)C(F)(F)F`, the IC50 – broadly, the concentration needed to halve the response being measured – was “inactive”.
Regarding `CCOc1cccc(-c2nnc3n2N=C(c2cc(OC)ccc2OC)CS3)c1`, the IC50 is > 32.7 µM (inactive).
As to `COc1ccccc1-c1nnc2n1N=C(c1ccc(O)c(O)c1)CS2`, the IC50 was > 50 µM (inactive).
Consider `CS(=O)(=O)c1nc(-c2ccco2)cc(C(F)(F)F)n1`, for which the 50% inhibitory concentration (IC50) was 2.26 µM.
Turning to `CCN(CC)c1ccc2c(Cl)c(Br)c(=O)oc2c1`, the IC50 is 0.999 µM.
In the case of `COc1ccc(C2N(c3ccc(F)cc3)C(=O)C3CCCN32)cc1` (configuration not stated), the IC50 is > 38.2 µM (inactive).
As to `COc1cccc(N2CCN(c3ncnc4c3[nH]c3ccccc34)CC2C)c1` (configuration not stated), the half-inhibitory concentration (IC50) was 8.24 µM.
As to `Cc1ccc(-n2nc3c([n+]2[O-])CCc2c-3no[n+]2[O-])cc1`, the 50% inhibitory concentration (IC50) is 3.9 µM.
As to `COC(=O)Nc1nc2ccc(Sc3ccccc3)cc2[nH]1`, the IC50 was > 50 µM (inactive).
`COc1ccc(-c2cc(C(F)(F)F)nc(S(C)(=O)=O)n2)cc1OC`: the IC50 was 2.91 µM.
For the molecule `O=S1(=O)C=C(Sc2nnc(-c3ccccc3)o2)c2ccccc21`, the concentration for half-maximal inhibition (IC50) was 1.04 µM.
Turning to `Cc1ccc(S(=O)(=O)Nc2cccc3ncccc23)s1`, the IC50 is 2.91 µM.
For `O=C(Nc1ccc(-c2nc3ncccc3o2)cc1)c1ccc(Br)o1`, the IC50 was > 50 µM (inactive).
Consider `CC(=O)Nc1cc(OC(C)=O)c2nonc2c1OC(C)=O`, for which the IC50 is 2.1 µM.
For `CCCOc1ccc2nc(NC(=O)OC)[nH]c2c1`, the IC50 was > 50 µM (inactive).
On to `CCn1nc(-c2ccccc2)nc2c(=O)n(C)c(=O)nc1-2`, for which the IC50 is > 50 µM (inactive).
As for `CCn1nc(-c2cccs2)nc2c(=O)n(C)c(=O)nc1-2`, the half-inhibitory concentration (IC50) is 0.629 µM.
Regarding `COCCOC(=O)c1[nH]c2c(c1C)C(=O)CC(c1ccccc1)C2` (configuration not stated), the IC50 is > 50 µM (inactive).
Regarding `CC(=O)Oc1ccc(N2C(=O)C3C(C2=O)C2(C)C=CC3(C)O2)cc1` (configuration not stated), the IC50 is 2.62 µM.
To `CCOc1ccc(C2=Nn3c(nnc3-c3ccccc3OC)SC2)cc1` belongs > 50 µM (inactive); to `CS(=O)(=O)c1nc(-c2cccs2)cc(C(F)(F)F)n1`, 1.93 µM.
With `Clc1ccc(-n2nnnc2Sc2ncnc3sccc23)cc1`, the half-inhibitory concentration (IC50) is 3.5 µM.
With `O=C1C2C3C=CC(CO)(O3)C2C(=O)N1c1ccc(-c2ccccc2)cc1` (configuration not stated), the IC50 is 4.91 µM.
To `CCn1c(=O)c(C(=O)Nc2nc3ccccc3[nH]2)c(O)c2ccccc21` belongs “inactive”; to `COc1cccc(N2CCN(c3ncnc4c3cnn4-c3ccc(C)cc3C)CC2)c1`, 6.99 µM; to `COc1ccc(-n2nnnc2S(=O)(=O)CC(=O)N2CCCCC2)cc1`, 2.61 µM.
As to `CCCc1nnc2n1N=C(c1ccc(OC)c(OC)c1)CS2`, the IC50 was > 50 µM (inactive).
Consider `Cn1c(-c2c(N)n(C3CCCC3)c3nc4ccccc4nc23)nc2ccccc21`, for which the IC50 is 3.64 µM.
`CC(C)=CCC(C)(C)CNC(=O)NC1CCCCC1`: the IC50 is > 50 µM (inactive).
Regarding `N#C/C(=C/c1ccc(N2CCCCCC2)o1)c1ccc(F)cc1`, the half-inhibitory concentration (IC50) was 5.2 µM.
Turning to `CCCOCCOC(=O)c1[nH]c2c(c1C)C(=O)CC(c1cc(OC)ccc1OC)C2` (configuration not stated), the IC50 was > 50 µM (inactive).
In the case of `COc1cc(NS(=O)(=O)c2ccc(C)cc2)c2ncccc2c1` it was 3.75 µM; in that of `COc1cccc(N2CCN(c3ncnc4c3[nH]c3ccc(F)cc34)CC2C)c1` (configuration not stated), 1.82 µM.
On to `O=C(Nc1ccc(N2CCOCC2)cc1)Nc1ccc2nc(-c3ccco3)c(-c3ccco3)nc2c1`, for which the IC50 was > 17.2 µM (inactive).
As for `CN(C)c1nc(OCCNC(=O)COc2ccc(Cl)cc2Cl)nc(N2CCCCC2)n1`, the IC50 is > 50 µM (inactive).
For the molecule `COC(=O)/C(=C1/Oc2cc(C)oc(=O)c2S1)C(F)(F)F`, the 50% inhibitory concentration (IC50) is 1.86 µM.
`COc1ccc(N2C(=O)CC(NCc3ccncc3)C2=O)cc1` (configuration not stated): the IC50 is > 50 µM (inactive).
For `COc1cc2c(cc1OC)C1=C(C#N)CC/C(=N\S(=O)(=O)c3ccccc3)N1CC2`, the IC50 was > 50 µM (inactive).
Consider `CS(=O)(=O)c1nc(-c2ccccc2)cc(C(F)(F)F)n1`, for which the IC50 was 2.13 µM.
Take `COc1cc2c(cc1OC)-c1cc(N3CCCc4ccccc43)nc(=O)n1CC2`: the IC50 is > 50 µM (inactive).
Turning to `N#CCCS(=O)(=O)c1nnnn1-c1ccccc1`, the IC50 was 2.79 µM.
For `CSc1ccccc1N=CC1=C(O)CC(C)(C)CC1=O`, the IC50 is 2.35 µM.

Values taken from PubChem BioAssay AID749 (The Scripps Research Institute Molecular Screening Center, 2007).
